pIC50: −log10 of the molar value.
Tests used:
[1] = biological target: Glutamate NMDA receptor; GRIN1/GRIN2B (Homo sapiens, UniProt Q05586+Q13224)
Description: Inhibition of NMDA NR1/NR2B receptor expressed in xenopus oocytes assessed as inhibition of NMDA and glycine-induced current response by two-electrode voltage clamp assay

Acetylcholinesterase = Acetylcholinesterase (Homo sapiens, UniProt P22303)
Description: Inhibition of human recombinant AChE by Ellman's method

Cholinesterase = Cholinesterase (Homo sapiens, UniProt P06276); experiment: Inhibition of human serum BChE by Ellman's method
SH-SY5Y = experiment: Antioxidant activity against tert-butyl hydroperoxide-induced ROS evoked cell death in human SH-SY5Y cells; format: functional, cell-based

Acetylcholinesterase, sequence (P22303 whole entry): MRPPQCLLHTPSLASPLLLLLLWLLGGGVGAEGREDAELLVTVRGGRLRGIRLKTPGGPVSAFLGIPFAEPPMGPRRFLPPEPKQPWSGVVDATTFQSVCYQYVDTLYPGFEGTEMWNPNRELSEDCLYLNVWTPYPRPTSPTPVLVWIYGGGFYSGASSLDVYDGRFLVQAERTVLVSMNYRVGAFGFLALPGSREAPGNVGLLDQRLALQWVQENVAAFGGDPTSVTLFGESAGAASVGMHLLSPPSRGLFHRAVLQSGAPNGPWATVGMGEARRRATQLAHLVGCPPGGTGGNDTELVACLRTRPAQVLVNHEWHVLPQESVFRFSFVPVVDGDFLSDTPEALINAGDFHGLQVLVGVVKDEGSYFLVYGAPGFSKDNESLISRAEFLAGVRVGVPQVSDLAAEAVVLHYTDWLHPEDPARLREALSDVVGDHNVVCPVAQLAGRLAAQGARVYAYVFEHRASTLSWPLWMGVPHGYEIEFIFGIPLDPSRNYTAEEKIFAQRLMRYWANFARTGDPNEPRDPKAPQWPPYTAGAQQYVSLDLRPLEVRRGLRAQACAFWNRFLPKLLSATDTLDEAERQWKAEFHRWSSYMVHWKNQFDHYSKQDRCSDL
Cholinesterase, sequence (P06276 whole entry): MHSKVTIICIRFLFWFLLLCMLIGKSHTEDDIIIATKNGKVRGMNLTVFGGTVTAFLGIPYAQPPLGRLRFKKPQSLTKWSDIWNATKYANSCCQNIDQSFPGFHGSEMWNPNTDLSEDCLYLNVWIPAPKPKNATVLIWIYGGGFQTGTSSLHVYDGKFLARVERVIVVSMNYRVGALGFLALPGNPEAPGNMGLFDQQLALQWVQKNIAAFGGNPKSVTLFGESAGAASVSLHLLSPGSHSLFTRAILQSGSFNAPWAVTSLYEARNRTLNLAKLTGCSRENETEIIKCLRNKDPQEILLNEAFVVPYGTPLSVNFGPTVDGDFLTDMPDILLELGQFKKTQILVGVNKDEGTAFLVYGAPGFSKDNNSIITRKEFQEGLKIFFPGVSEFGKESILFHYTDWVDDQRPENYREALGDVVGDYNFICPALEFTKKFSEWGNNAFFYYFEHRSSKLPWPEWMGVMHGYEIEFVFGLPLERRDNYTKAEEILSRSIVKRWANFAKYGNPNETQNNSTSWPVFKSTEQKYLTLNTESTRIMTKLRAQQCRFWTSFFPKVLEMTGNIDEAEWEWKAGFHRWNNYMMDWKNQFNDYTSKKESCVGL
Glutamate NMDA receptor; GRIN1/GRIN2B, sequence (Q13224 whole entry, other chains not shown): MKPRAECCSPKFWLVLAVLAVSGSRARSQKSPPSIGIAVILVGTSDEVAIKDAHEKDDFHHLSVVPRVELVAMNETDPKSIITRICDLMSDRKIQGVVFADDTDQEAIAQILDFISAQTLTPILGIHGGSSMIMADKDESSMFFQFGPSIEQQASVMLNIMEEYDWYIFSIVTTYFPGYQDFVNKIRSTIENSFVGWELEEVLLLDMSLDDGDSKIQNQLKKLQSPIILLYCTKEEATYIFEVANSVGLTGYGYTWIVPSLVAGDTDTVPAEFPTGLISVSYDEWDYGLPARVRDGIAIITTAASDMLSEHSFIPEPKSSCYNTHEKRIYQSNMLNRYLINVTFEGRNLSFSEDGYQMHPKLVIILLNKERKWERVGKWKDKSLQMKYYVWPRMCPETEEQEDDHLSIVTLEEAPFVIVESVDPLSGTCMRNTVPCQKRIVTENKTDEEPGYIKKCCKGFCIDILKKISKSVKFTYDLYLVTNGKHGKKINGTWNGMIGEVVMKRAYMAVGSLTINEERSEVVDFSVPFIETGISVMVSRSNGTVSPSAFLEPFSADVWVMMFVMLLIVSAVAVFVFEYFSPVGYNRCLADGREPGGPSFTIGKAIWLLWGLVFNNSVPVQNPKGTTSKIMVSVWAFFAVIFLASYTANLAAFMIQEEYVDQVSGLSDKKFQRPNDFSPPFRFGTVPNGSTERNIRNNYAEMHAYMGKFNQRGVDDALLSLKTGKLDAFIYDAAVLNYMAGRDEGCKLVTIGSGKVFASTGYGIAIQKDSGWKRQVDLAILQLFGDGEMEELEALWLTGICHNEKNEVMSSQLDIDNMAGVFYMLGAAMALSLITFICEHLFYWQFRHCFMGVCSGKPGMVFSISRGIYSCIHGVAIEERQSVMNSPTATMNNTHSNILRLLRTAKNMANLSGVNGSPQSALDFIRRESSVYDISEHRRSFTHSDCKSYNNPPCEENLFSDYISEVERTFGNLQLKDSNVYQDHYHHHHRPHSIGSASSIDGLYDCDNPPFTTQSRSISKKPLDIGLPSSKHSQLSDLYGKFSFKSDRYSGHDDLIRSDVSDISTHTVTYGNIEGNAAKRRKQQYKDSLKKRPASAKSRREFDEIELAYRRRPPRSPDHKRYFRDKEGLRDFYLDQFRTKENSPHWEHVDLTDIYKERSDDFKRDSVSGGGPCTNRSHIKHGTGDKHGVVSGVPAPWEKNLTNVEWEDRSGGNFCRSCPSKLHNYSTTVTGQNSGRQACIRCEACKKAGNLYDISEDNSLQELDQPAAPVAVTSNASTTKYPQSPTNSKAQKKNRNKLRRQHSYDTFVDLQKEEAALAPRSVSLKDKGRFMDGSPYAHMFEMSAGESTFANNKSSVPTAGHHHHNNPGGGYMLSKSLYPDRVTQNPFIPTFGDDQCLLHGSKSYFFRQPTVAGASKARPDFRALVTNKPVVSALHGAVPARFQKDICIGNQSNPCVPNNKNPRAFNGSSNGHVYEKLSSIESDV

| Structure (SMILES) | pIC50 [1] | pIC50 (Acetylcholinesterase) | pIC50 (Cholinesterase) | pIC50 (SH-SY5Y) |
| --- | --- | --- | --- | --- |
| Clc1ccc2c(NCCCNCCCCCOc3cccc4[nH]c5ccccc5c34)c3c(nc2c1)CCCC3 | 4.74 | 8.81 | 6.72 |  |
| Clc1ccc2c(NCCCNCCCCOc3cccc4[nH]c5ccccc5c34)c3c(nc2c1)CCCC3 | 4.52 | 8.78 | 6.68 |  |
| Clc1ccc2c(NCCCNCCCOc3cccc4[nH]c5ccccc5c34)c3c(nc2c1)CCCC3 [CARBACRINE] | 6.13 | 8.67 | 6.53 | 4.64 |
| Cc1c(C)c2c(c(C)c1O)CCC(C)(C(=O)O)O2 (stereo not given) [TROLOX] |  |  |  | 4.30 |
| Oc1cccc2[nH]c3ccccc3c12 |  |  |  | 7.15 |
| Clc1ccc2c(NCCCNCCCCCCOc3cccc4[nH]c5ccccc5c34)c3c(nc2c1)CCCC3 | 4.89 | 8.59 | 6.86 |  |

— ChEMBL document CHEMBL1155822, “Inhibition of acetylcholinesterase, beta-amyloid aggregation, and NMDA receptors in Alzheimer's disease: a promising direction for the multi-target-directed ligands gold rush” (J Med Chem, 2008)
